Results published in paper PMC9686213, “Peptide Carbocycles: From −SS– to −CC– via a Late-Stage “Snip-and-Stitch”” (ACS Central Science, 2022).
Like-named read-outs stand apart in the source and are kept apart here.

How the values were obtained:
[1] = ethylene glycol/heptane, cited from earlier work
[2] = Partition coefficient Peh in ethylene glycol/heptane (permeability, log Peh); type: physicochemical; conditions: UPLC peak area at 280 nm
From the text: (§1) We next examined the effect of our linkers on the biopharmaceutical properties of setmelanotide. The capacity of setmelanotide (SMT) to regulate appetite depends on its ability to penetrate the blood–brain barrier and to activate melanocortin-4 (MC4) receptors in the brain.[79],[80] […] To assess cell permeability, we measured the partition coefficient Peh of our carbocyclic peptides in a mixture of ethylene glycol and heptane.[81]−[84] […] Thus, log Peh values are a good approximation of in vivo permeabilities. […] Finally, we determined the stability of our carbocyclic peptides to aqueous hydrolysis and to reductive cleavage by glutathione (GSH), an approximate measure of their plasma stability.[85] GSH in the cytoplasm can reduce disulfide bonds to dicysteine peptides and can also cleave disulfide bonds through a disulfide exchange reaction.[18]−[21] […] All measurements were compared to setmelanotide (SMT).
(§2) (1 picture or pasted object on this page, not shown here)

[3] = Stability to reductive cleavage / disulfide exchange by glutathione (GSH); type: in vitro ADME; conditions: pH 7.4, 37 °C
From the text: We next examined the effect of our linkers on the biopharmaceutical properties of setmelanotide. The capacity of setmelanotide (SMT) to regulate appetite depends on its ability to penetrate the blood–brain barrier and to activate melanocortin-4 (MC4) receptors in the brain.[79],[80] Replacing the −SS– bond of SMT with more lipophilic −CC– linkages could improve the CNS permeability of SMT and could also enhance its proteolytic stability. […] For aqueous solubility, we measured solvation in deionized water (pH 6 at 25 °C). […] To assess cell permeability, we measured the partition coefficient Peh of our carbocyclic peptides in a mixture of ethylene glycol and heptane.[81]−[84] […] Thus, log Peh values are a good approximation of in vivo permeabilities. […]. Thus, many of our carbocyclic analogs should have improved (up to 2.6-fold) blood–brain penetrance in vivo. Finally, we determined the stability of our carbocyclic peptides to aqueous hydrolysis and to reductive cleavage by glutathione (GSH), an approximate measure of their plasma stability.[85] GSH in the cytoplasm can reduce disulfide bonds to dicysteine peptides and can also cleave disulfide bonds through a disulfide exchange reaction.[18]−[21] […] The products were analyzed by LC-MS. […]

[4] = Hydrolytic stability at pH 8.5, 50 °C, LC-MS analysis; type: physicochemical; conditions: 16 h
From the text: as §1, §2

[5] = common small molecule CNS drugs

In the case of `Cc1cc(=O)n(-c2ccccc2)n1C` [antipyrine], the “log Peh” value [1, 5] is listed as −2.28.

In the case of `NC(=O)c1ccccc1` [benzamide], the “log Peh” value ([1]; reference solutes quoted 'for reference') is listed as −3.69.

For `c1cc(CN2CCCCC2)cc(OCCCNc2nc3ccccc3s2)c1` [zolantidine], the “log Peh” value [1, 5] is given as −1.47.

For `Clc1cccc(Cl)c1N=C1NCCN1` [clonidine], the “log Peh” value [1, 5] is listed as −1.80.

With setmelanotide [SMT] the “log Peh” value [2] was −1.16, the “mixed disulfide formed (disulfide exchange)” value ([3]; 1 equiv. GSH, after 24 h) was 2% and the “mixed disulfide formed (disulfide exchange)” value ([3]; 10 equiv. GSH) was 17%. The “hydrolysis outcome (in words)” value [4] was “loss of a single sulfur atom”.
